Results on 20 compounds are retold here after paper PMC7555035, “In Vitro Inhibition of Phosphodiesterase 3B (PDE 3B) by Anthocyanin-Rich Fruit Juice Extracts and Selected Anthocyanins” (International Journal of Molecular Sciences, 2020).

“Also recorded” adds a separate entry of the source.

The target in series [1] is T1, PDE 3B (recombinant, EC 3.1.4.17) (Homo sapiens, UniProt Q13370).
T1 construct: purchased Sigma Aldrich (St. Louis, MO, USA)
As to the kind of experiment: cAMP-specific PDE activity assay (cell-free, radiochemical). The settings on record: for IC50: mean ± SD, n = 3–4, read-out: IC50 of cyanidin and anthocyanins; for influence on PDE activity (in words): c = 25–2000 µM; for IC50 of single anthocyanins: given in µg/mL. In kind it is biochemical. Here is the method:
The inhibitory effect of each extract on PDE 3B was measured according to the method published by Pöch et al. with slight modifications. One hundred microliters (100 µL) of the sample and 20 µL of PDE 3B (200 Units/mL) were incubated for 15 min at 4°C. Afterwards, a 50 µL volume of cAMP Mix (30 mM Tris/HCl pH 7.4, 9 mM MgCl2, 3 mM 5′AMP, 3 µM cAMP, 2.6 µCi/mL [2,8-^3H]-cAMP) was added and the mixture incubated for 25 min at 37 °C to allow for reaction. […] Experiments were performed in triplicate, and IC50 values were determined after at least three independent experiments. The ranges of test concentrations of extracts and single substances were intentionally chosen to align with similar ranges used for previous studies (extracts < 600 µg/mL; ACs < 2000 µM) to facilitate comparison with previous experiments.

Series [2] relates to phosphodiesterase 3′,5′-cyclic nucleotide 5′nucleotidohydrolase. More on the design: method as in PMID 18617377. The settings on record: 0.01%, diluted in dimethyl sulfoxide; cited from earlier work.
The subject of series [3] is PDE in human platelet lysates. Further details: method as in PMID 25247601. Conditions: in vitro; cited from earlier work.
For series [4], the system named is PDE isolated from the lung tumor xenograft cell line LXFL529L. Further details: method as in PMID 29113064. The settings on record: cited from earlier work.
Series [5] has as its system phosphodiesterase from rat adipocytes. Further details: method as in PMID 1384499. The settings on record: cited from earlier work.
For a further series, the system named is human PDE 5A1. More on the design: method as in PMID 15769121. The settings on record: cited from earlier work.
For series [6], the system named is cytosolic PDE activity in HT29 cells. Further details: method as in PMID 15497183. The settings on record: cited from earlier work.
On the set-up of series [7]: method as in PMID 22913378. The settings on record: cited from earlier work.
In a further series the test system is PDE 1. More on the design: method as in PMID 27558680. The settings on record: in vitro; cited from earlier work.

T1 sequence (Q13370 whole entry, species assumed): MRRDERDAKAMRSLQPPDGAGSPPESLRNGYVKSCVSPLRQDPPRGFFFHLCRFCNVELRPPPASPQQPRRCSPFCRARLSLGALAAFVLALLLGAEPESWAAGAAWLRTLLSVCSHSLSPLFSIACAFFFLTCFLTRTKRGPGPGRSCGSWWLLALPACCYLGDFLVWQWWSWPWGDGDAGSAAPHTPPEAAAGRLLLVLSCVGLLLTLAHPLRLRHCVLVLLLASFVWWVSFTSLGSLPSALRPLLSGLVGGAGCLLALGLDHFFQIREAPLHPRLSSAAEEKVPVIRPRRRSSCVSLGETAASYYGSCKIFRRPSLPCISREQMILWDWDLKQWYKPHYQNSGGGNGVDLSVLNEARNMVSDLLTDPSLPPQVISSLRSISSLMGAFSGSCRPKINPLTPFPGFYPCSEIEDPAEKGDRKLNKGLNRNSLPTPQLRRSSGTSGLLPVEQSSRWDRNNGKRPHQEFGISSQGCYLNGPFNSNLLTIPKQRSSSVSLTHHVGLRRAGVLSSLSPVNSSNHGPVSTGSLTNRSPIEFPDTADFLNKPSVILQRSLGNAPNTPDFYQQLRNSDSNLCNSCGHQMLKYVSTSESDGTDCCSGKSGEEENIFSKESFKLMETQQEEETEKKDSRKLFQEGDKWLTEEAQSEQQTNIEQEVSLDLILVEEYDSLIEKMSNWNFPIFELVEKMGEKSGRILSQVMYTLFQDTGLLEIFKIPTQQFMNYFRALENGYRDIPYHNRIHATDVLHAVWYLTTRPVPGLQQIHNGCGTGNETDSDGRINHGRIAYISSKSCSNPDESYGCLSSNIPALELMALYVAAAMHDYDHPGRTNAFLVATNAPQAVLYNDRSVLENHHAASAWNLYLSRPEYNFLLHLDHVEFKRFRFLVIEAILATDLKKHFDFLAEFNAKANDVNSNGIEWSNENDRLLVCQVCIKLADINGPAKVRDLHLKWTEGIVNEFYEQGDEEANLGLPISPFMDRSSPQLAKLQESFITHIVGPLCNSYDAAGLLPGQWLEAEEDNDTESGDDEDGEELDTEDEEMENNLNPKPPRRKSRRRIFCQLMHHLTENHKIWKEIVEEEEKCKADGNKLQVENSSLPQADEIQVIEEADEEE

Usually IC50 stands for the concentration that inhibits the measured activity by half. On to `COc1cc(-c2[o+]c3cc(O)cc(O)c3cc2O[C@@H]2O[C@H](CO)[C@@H](O)[C@H](O)[C@H]2O)cc(O)c1O.[Cl-]` [petunidin-3-glucoside, petunidin-3-glucoside chloride], for which the “rel. PDE activity (% of solvent control)” value in series [1] (c = 600 µM) was “around 40%”. For the same compound, in series [1], the IC50 was found to be 448 ± 39 µM.

As to `Cn1c(=O)c2c(ncn2C)n(C)c1=O` [caffeine], the PDE inhibition in series [2] is reported as 56%. In series [3], the IC50 was 700 µM.

With `OC[C@H]1OC(Oc2cc3c(O)cc(O)cc3[o+]c2-c2ccc(O)c(O)c2)[C@H](O)[C@@H](O)[C@H]1O.[Cl-]` (stereo partly drawn) [cyanidin-3-galactoside, cyanidin-3-galactoside chloride], in series [1], the “concentration below which no influence on PDE activity” value is recorded as “below 884 µM” and the “influence on PDE activity (in words)” value is given as “little PDE inhibition”. The “rel. PDE activity (% of solvent control)” value in [1] (c = 2000 µM) is 52.3 ± 13.7%.

As for `COc1cc(-c2[o+]c3cc(O)cc(O)c3cc2O[C@@H]2O[C@H](CO)[C@@H](O)[C@H](O)[C@H]2O)ccc1O.[Cl-]` [peonidin-3-glucoside, Peonidin-3-glucoside chloride], in series [1], the “concentration above which PDE activity significantly diminished” value is reported as “above 55 µM”, the “IC50 of single anthocyanins” value is given as 56 ± 20 µg/mL and the IC50 turned out to be 120 ± 44 µM. The “rel. PDE 3B activity (% of solvent control)” value in [1] (c = 271 µM) is “comparable to those seen with caffeine”.

Take `Oc1cc(O)c2cc(O[C@@H]3OC[C@H](O)[C@H](O)[C@H]3O)c(-c3ccc(O)c(O)c3)[o+]c2c1.[Cl-]` [cyanidin-3-arabinoside, cyanidin-3-arabinoside chloride]: in series [1] (c = 600 µM), the “rel. PDE activity (% of solvent control)” value is recorded as 32.3 ± 2.9%. Moreover, in series [1], the “IC50 of single anthocyanins” value came to 108 ± 6 µg/mL and the half-maximal inhibitory concentration (IC50) turned out to be 257 ± 13 µM.

Take `C[C@@H]1O[C@@H](OC[C@H]2O[C@@H](Oc3cc4c(O)cc(O)cc4[o+]c3-c3ccc(O)c(O)c3)[C@H](O)[C@@H](O)[C@@H]2O)[C@H](O)[C@H](O)[C@H]1O.[Cl-]` [cyanidin-3-rutinoside, cyanidin-3-rutinoside chloride]: in [1], the “influence on PDE activity (in words)” value is “inactive”.

Turning to `O=c1cc(-c2ccc(O)c(O)c2)oc2cc(O)cc(O)c12` [luteolin], the concentration for half-maximal inhibition (IC50) in [4] is 41 ± 10 µM. Besides, the “inhibitory potency relative to 3-isobutyl-2-methylxanthine (in words)” value in series [5] is “comparable to or greater than 3-isobutyl-2-methylxanthine”.

Turning to `OC[C@H]1O[C@@H](Oc2cc3c(O)cc(O)cc3[o+]c2-c2ccc(O)c(O)c2)[C@H](O)[C@@H](O)[C@@H]1O.[Cl-]` [cyanidin-3-glucoside, cyanidin-3-glucoside chloride], in series [1] (c = 600 µM), the “inhibition of PDE 3B” value is 63% and the “rel. PDE activity (% of solvent control)” value is “around 40%”. Besides, in series [1], the “IC50 of single anthocyanins” value is recorded as 134 ± 25 µg/mL and the 50% inhibitory concentration (IC50) amounted to 299 ± 56 µM. Also, the PDE inhibition in series [2] is 99%.

As for `O=c1c(O)c(-c2ccc(O)cc2)oc2cc(O)cc(O)c12` [kaempferol], the half-inhibitory concentration (IC50) in series [5] was 58 µM.

As to `O=c1c(-c2ccc(O)cc2)coc2cc(O)cc(O)c12` [genistein], the “inhibitory potency relative to 3-isobutyl-2-methylxanthine (in words)” value in series [5] is reported as “comparable to or greater than 3-isobutyl-2-methylxanthine”.

For the compound `COc1cc(-c2[o+]c3cc(O)cc(O)c3cc2O)cc(OC)c1O` [malvidin], the IC50 in the series on human PDE 5A1 is 24.9 µM.

Turning to `OC[C@H]1O[C@@H](Oc2cc3c(O[C@@H]4O[C@H](CO)[C@@H](O)[C@H](O)[C@H]4O)cc(O)cc3[o+]c2-c2ccc(O)c(O)c2)[C@H](O)[C@@H](O)[C@@H]1O.[Cl-]` [cyanidin-3,5-diglucoside, cyanidin-3,5-diglucoside chloride], the “influence on PDE activity (in words)” value in series [1] is “inactive; also recorded: no effect”.

For the compound `Oc1cc(O)c2cc(O)c(-c3ccc(O)c(O)c3)[o+]c2c1` [cyanidin, cyanidin chloride], the remaining activity at 11 µM in series [1] (c = 11 µM, read-out: rel. PDE 3B activity (% of solvent control)) came to 94.7 ± 2.8%. Also, the remaining activity at 271 µM in series [1] (c = 271 µM, read-out: rel. PDE 3B activity (% of solvent control)) was determined as 28.7 ± 6.5%. Further, the IC50 in series [1] was 105 ± 11 µM; in series [6], approximately 175 µM. In addition, in [7], the “stability in cell culture medium (in words)” value was “degraded rapidly”.

Consider `O=c1c(O)c(-c2ccc(O)c(O)c2)oc2cc(O)cc(O)c12` [Quercetin], for which the “inhibitory potency relative to 3-isobutyl-2-methylxanthine (in words)” value in [5] is on record as “comparable to or greater than 3-isobutyl-2-methylxanthine”.

As for `COc1cc(-c2[o+]c3cc(O)cc(O)c3cc2O[C@@H]2O[C@H](CO)[C@@H](O)[C@H](O)[C@H]2O)cc(OC)c1O.[Cl-]` [malvidin-3-glucoside, malvidin-3-glucoside chloride], the “minimum rel. PDE activity (% of solvent control)” value in series [1] (c = 1328 µM) worked out at 71.4 ± 9.7%. Moreover, the half-maximal inhibitory concentration (IC50) in the series on human PDE 5A1 is 35.4 µM.

Turning to `O=c1c(O)c(-c2cc(O)c(O)c(O)c2)oc2cc(O)cc(O)c12` [myricetin], the IC50 in series [5] was 125 µM.

With `O=C(O)c1cc(O)c(O)c(O)c1` [gallic acid], the concentration for half-maximal inhibition (IC50) in the series on PDE 1 is 325 ± 3.62 µM.

For the compound `O=C(/C=C/c1ccc(O)c(O)c1)O[C@@H]1[C@H](O)C[C@@](O)(C(=O)O)C[C@H]1OC(=O)/C=C/c1ccc(O)c(O)c1` (stereo in doubt) [3,4-dicaffeoylquinic acid], the IC50 in series [4] was more than 1000 µM.

As to `CC(C)Cn1c(=O)n(C)c(=O)c2[nH]cnc21`, in [5], the concentration for half-maximal inhibition (IC50) was 30 to 50 µM.

On to `O=C(/C=C/c1ccc(O)c(O)c1)O[C@@H]1C[C@](O)(C(=O)O)C[C@@H](O)[C@H]1O` [chlorogenic acid], for which the 50% inhibitory concentration (IC50) in the series on PDE 1 is 36.7 ± 1.6 µM.
